Assay results taken from patent US8361999B2, “Methods of treating cholesterol gallstone disease with ezetimibe” (Pontificia Universidad Catolica de Chile, priority 2005, dated 2013).

Experiments:
Ntcp = experiment: Hepatic expression of bile salts transporter Ntcp (Western blot); type: in vivo, mouse
From the text: Expression of Specific Bile Salts (Ntcp, Bsep), Phospholipid (MDR2) and Organic Anions or Glutathione (MRP2); And Determination of Glutathione Synthesis (Gluthamylcystein-Synthetase (GGCS)).
Western Blot analysis. We evaluated protein expression levels of the bile salts transporters Ntcp (sinusoidal pole) and Bsep (cannicular pole) by Western blotting in total liver membranes or liver plasma membranes from mice treated with the different diets. Total membranes were obtained from liver fragments homogenized in Tris-HCl pH 7.5, MgCl2 and sucrose. The homogenates were centrifuged at 1,000 g to separate nuclei, and the supernatants were then centrifuged at 100,000 g. The pellet, containing the total membranes, was resuspended in the buffer described above and proteins were quantified by the Bradford method. Aliquots containing 50 μg protein were separated by SDS-PAGE and transfer to nitrocellulose. The membranes were incubated in buffer TBS-T (Tris-HCl pH 7.5, NaCl and Tween-20), milk 5% w/v plus the antibodies to evaluate the different proteins (Bsep, Ntcp). The secondary antibodies were IgG anti rabbit or anti mouse coupled to peroxidase. The protein signals were detected by the ECL method.

C57BL/6J mice = experiment: Lithiasis of the gallbladder and cholesterol crystals in gallbladder bile, protocol #1 (14 days); type: in vivo, mouse; settings: for formation of cholesterol crystals and cholesterol gallstones: C57BL/6 mice on lithogenic diet plus ezetimibe
From the text: Experimental Animal Disease Models. Spontaneous cholelithiasis is extremely rare in experimental or wild animals, probably because they secrete low levels of cholesterol into the bile and have therefore non-saturated cholesterol bile. However, different animal models (rabbit, hamster, prairie dog, squirrel and mouse) develop cholelithiasis similar to the human disease on cholesterol rich plus bile salts (cholic acid) and sometimes triglycerides rich experimental diets. The mouse is the best characterized experimental model where the development of the disease is dependent of a diet known as “lithogenic” (1.25% cholesterol, 0.5% cholic acid, 15% fat). Under these conditions most of the available mouse strains develop cholesterol cholelithiasis in variable proportions and times (Paigen, 2002). It has been established that there are strains more susceptible or more resistant to develop cholelithiasis, which could be genetically determined. The mice strains C57L and C57BL/6 are particularly susceptible to develop cholelithiasis (80-100% of the animals develop the disease in 2-4 weeks on lithogenic diet) (Paigen, 2002; Bouchard et al., unpublished data communicated in www.jax.org/pub-cgi/phenome). Studies performed in these models during the last years have been vital in the better understanding of the disease and for the discovery of genes that are potentially relevant in generating susceptibility to the illness (Paigen, 2002). In this preclinical innovation work we use the mouse strain C57BL/6.
We used mice C57BL/6J susceptible to the development of cholelithiasis originally obtained from Jackson Corp (Bar Harbor, Me., USA) and the colonies were grown in our Laboratory of Gastroenterology, Facultad de Medicina, P. Universidad Católica de Chile. The experimental groups were fed a control chow diet low in cholesterol (<0.02% cholesterol, Prolab RMH3000, PMI Feeds Inc., St. Louis, Mo.) or a lithogenic diet (1.25% cholesterol, 0.5% cholic acid, 15% fat, TD90221, Harlan Teklad, Madison, Wis.) (Amigo et al. 2000). These mice were also treated with Ezetimibe (Zetia®, Merk/Schering Plough) or placebo. In protocol #1 Zetia® tablets were grinded in a porcelain mortar and dissolved in water to be administered to the mice in one daily dose (08 h) of 5 mg/Kg weight by gavage in a final volume of […]; the control groups were given the same volume of water by gavage without the drug. In protocol #2 Zetia® tablets were grinded in the same way described above, dissolved in 200 cc 100% ethanol (Merck) and added to the lithogenic diet previously grinded and dried for 48 h at room temperature. C57BL/6J mice received this lithogenic diet plus Zetia® in a estimated dose of 5-6 mg/kg/day during 30 days (the mice consume 4-5 gr of diet per day). […]

For O=C1[C@H](CC[C@H](O)c2ccc(F)cc2)[C@@H](c2ccc(O)cc2)N1c1ccc(F)cc1 [Ezetimibe, (−)-1-(4-fluorophenyl)-(3R)-[3-(4-fluorophenyl)-(.S)-hydroxypropyl]-(4S)-(4-hydroxyphenyl)-2-azetidinone], the “hepatic expression of Ntcp, lithogenic diet plus Ezetimibe vs lithogenic diet” value (Ntcp; 14 days) was “no significant differences”, the “decrease of Ntcp protein expression level on a lithogenic diet” value (Ntcp; FIG. 6 B, lithogenic diet with Ezetimibe vs plus water) was “significantly attenuated” and the “formation of cholesterol crystals and cholesterol gallstones” value (C57BL/6J mice) was “complete inhibition”. The “formation of cholesterol crystals and cholesterol gallstones” value (C57BL/6J mice; listed as ezetimibe) was “inhibited”, the “development of cholelithiasis or cholesterol crystals in the bile” value (C57BL/6J mice; control diet low in cholesterol plus Ezetimibe) was “did not develop cholelithiasis or cholesterol crystals” and the “mice that developed gallstones or cholesterol crystals in the gallbladder” value (C57BL/6J mice; lithogenic diet plus Ezetimibe 5 mg/kg/day by gavage, 100% in lithogenic diet plus water) was “none”.
